From patent US12612410B2 (CHILDREN'S HOSPITAL MEDICAL CENTER, priority 2020, dated 2026)

The compounds below were run against T1, FLT3 K663Q (Homo sapiens, UniProt P36888, K663Q) (assay: DiscoverX KINOMEscan competition binding, FLT3 K663Q).
T1 construct: host or cells: E. coli BL21-derived host (T7 phage) or HEK-293
T1 sequence (P36888 27-993 K663Q): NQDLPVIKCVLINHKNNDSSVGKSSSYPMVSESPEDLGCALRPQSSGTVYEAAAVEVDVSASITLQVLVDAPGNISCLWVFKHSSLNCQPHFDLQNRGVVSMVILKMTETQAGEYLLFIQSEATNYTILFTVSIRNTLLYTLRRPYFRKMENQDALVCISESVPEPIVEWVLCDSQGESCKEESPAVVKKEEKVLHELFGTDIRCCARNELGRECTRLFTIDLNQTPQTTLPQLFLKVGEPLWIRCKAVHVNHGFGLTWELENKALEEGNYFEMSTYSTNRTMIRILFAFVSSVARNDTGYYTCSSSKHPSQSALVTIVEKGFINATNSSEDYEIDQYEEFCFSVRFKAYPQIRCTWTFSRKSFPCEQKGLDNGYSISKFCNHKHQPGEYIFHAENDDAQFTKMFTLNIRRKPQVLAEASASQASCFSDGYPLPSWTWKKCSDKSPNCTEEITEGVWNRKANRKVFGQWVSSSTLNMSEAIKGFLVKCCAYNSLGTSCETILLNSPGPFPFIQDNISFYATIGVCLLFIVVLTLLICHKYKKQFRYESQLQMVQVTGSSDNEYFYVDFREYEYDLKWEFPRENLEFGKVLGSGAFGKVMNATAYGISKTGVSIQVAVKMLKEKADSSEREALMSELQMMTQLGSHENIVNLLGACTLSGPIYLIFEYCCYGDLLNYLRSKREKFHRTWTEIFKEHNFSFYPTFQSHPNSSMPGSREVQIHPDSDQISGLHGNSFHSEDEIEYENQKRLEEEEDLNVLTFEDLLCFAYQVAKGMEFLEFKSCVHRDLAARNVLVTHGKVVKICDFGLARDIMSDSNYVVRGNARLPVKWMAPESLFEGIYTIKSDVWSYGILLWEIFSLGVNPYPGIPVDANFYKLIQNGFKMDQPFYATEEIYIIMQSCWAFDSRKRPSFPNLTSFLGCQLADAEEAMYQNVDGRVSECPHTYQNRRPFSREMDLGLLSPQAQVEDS
Text: Kinase binding data were obtained for various exemplary compounds prepared according to Examples 1-24 using the DiscoverX KINOMVIEscan® active site-directed competition binding site-directed assay protocol described below. […] As a result, the data report thermodynamic interaction affinities (Kd values), rather than IC50 values that are dependent on ATP concentrations. The assay uses a DNA-tagged version of the protein kinase, and an immobilized ligand bound to a solid support. Compounds that directly or indirectly prevent kinase binding to the immobilized ligand reduce the amount of kinase captured on the solid support, which is detected using an ultra-sensitive qPCR method. Affinity constants reported from the assay have been reported to be independent of the immobilized ligand used that is coupled to the solid support (See supplemental information in Fabian, M. A. et. al., (2005) Nat. Biotechnol. 23, 329-336; Wodicka, L. M. et. al., (2010) Chem. Biol. 17, 1241-1249.)
Kinase-tagged T7 phage strains were prepared in an E. coli host derived from the BL21 strain. E. coli were grown to log-phase and infected with T7 phage and incubated with shaking at 32° C. until lysis. The lysates were centrifuged and filtered to remove cell debris. The remaining kinases were produced in HEK-293 cells and subsequently tagged with DNA for qPCR detection. Streptavidin-coated magnetic beads were treated with biotinylated small molecule ligands for 30 minutes at room temperature to generate affinity resins for kinase assays. The liganded beads were blocked with excess biotin and washed with blocking buffer (SeaBlock (Pierce), 1% BSA, 0.05% Tween 20, 1 mM DTT) to remove unbound ligand and to reduce non-specific binding. Binding reactions were assembled by combining kinases, liganded affinity beads, and test compounds in 1× binding buffer (20% SeaBlock, 0.17×PBS, 0.05% Tween 20, 6 mM DTT). Test compounds were prepared as 111× stocks in 100% DMSO. Kds were determined using an 11-point 3-fold compound dilution series with three DMSO control points. All compounds for Kd measurements are distributed by acoustic transfer (non-contact dispensing) in 100% DMSO. The compounds were then diluted directly into the assays such that the final concentration of DMSO was 0.9%. All reactions were performed in polypropylene 384-well plates. Each was a final volume of 0.02 mL. The assay plates were incubated at room temperature with shaking for 1 hour and the affinity beads were washed with wash buffer (1×PBS, 0.05% Tween 20). The beads were then re-suspended in elution buffer (1×PBS, 0.05% Tween 20, 0.5 μM nonbiotinylated affinity ligand) and incubated at room temperature with shaking for 30 minutes. The kinase concentration in the eluates was measured by qPCR.
Binding constants (Kds) were calculated with a standard dose-response curve using the Hill equation. The Hill Slope was set to −1. Curves were fitted using a non-linear least square fit with the Levenberg-Marquardt algorithm.

| SMILES | Kd |
| --- | --- |
| CC1(c2cn3c(-c4cccc(N[C@H]5CNC[C@@H]5F)n4)cnc3cn2)CC1 [Compound 1, N-((3S,4S)-4-fluoropyrrolidin-3-yl)-6-(6-(1-methylcyclopropyl)imidazo[1,2-a]pyrazin-3-yl)pyridin-2-amine] | 0.24 nM |
| CC1(c2cn3c(-c4cccc(N[C@@H]5CCNC5)n4)cnc3cn2)CC1 [Compound 3, (R)-6-(6-(1-methylcyclopropyl)imidazo[1,2-a]pyrazin-3-yl)-N-(pyrrolidin-3-yl)pyridin-2-amine] | 0.22 nM |
| CC1(c2cn3c(-c4cccc(N[C@H]5CNCC56CC6)n4)cnc3cn2)CC1 [Compound 5, (R)-N-(6-(6-(1-methylcyclopropyl)imidazo[1,2-a]pyrazin-3-yl)pyridin-2-yl)-5-azaspiro[2.4]heptan-7-amine] | 0.18 nM |
| FC(F)(F)C1(c2cn3c(-c4cccc(N[C@@H]5CCNC5)n4)cnc3cn2)CC1 [Compound 10, (R)-N-(pyrrolidin-3-yl)-6-(6-(1-(trifluoromethyl)cyclopropyl)imidazo[1,2-a]pyrazin-3-yl)pyridin-2-amine] | 0.45 nM |
| FC(F)c1cn2c(-c3cccc(N[C@H]4CNC[C@@H]4F)n3)cnc2cn1 [Compound 16, 6-(6-(difluoromethyl)imidazo[1,2-a]pyrazin-3-yl)-N-((3S,4S)-4-fluoropyrrolidin-3-yl)pyridin-2-amine] | 1.4 nM |
| FC(F)c1cn2c(-c3cccc(N[C@H]4CNCC[C@@H]4F)n3)cnc2cn1 [Compound 25, 6-(6-(difluoromethyl)imidazo[1,2-a]pyrazin-3-yl)-N-((3S,4S)-4-fluoropiperidin-3-yl)pyridin-2-amine] | 0.59 nM |

Continued, values first:

| Kd | SMILES |
| --- | --- |
| 0.83 nM | CC(C)(O)c1cn2c(-c3cccc(N[C@@H]4CCCNC4)n3)cnc2cn1 [Compound 30, (R)-2-(3-(6-(piperidin-3-ylamino)pyridin-2-yl)imidazo[1,2-a]pyrazin-6-yl)propan-2-ol] |
| 2.4 nM | CC(C)(O)c1cn2c(-c3cccc(N[C@H]4CNCC[C@@H]4F)n3)cnc2cn1 [Compound 31, 2-(3-(6-(((3S,4S)-4-fluoropiperidin-3-yl)amino)pyridin-2-yl)imidazo[1,2-a]pyrazin-6-yl)propan-2-ol] |
| 2.3 nM | FC(F)(F)COc1cn2c(-c3cccc(N[C@@H]4CCNC4)n3)cnc2cn1 [Compound 38, (R)-N-(pyrrolidin-3-yl)-6-(6-(2,2,2-trifluoroethoxy)imidazo[1,2-a]pyrazin-3-yl)pyridin-2-amine] |
| 0.39 nM | F[C@H]1CNC[C@@H]1Nc1cccc(-c2cnc3cnc(C4CC4)cn23)n1 [Compound 50, 6-(6-cyclopropylimidazo[1,2-a]pyrazin-3-yl)-N-((3S,4S)-4-fluoropyrrolidin-3-yl)pyridin-2-amine] |
| 0.82 nM | Cn1cc(-c2cn3c(-c4cccc(N[C@H]5CNC[C@@H]5F)n4)cnc3cn2)cn1 [Compound 52, N-((3S,4S)-4-fluoropyrrolidin-3-yl)-6-(6-(1-methyl-1H-pyrazol-4-yl)imidazo[1,2-a]pyrazin-3-yl)pyridin-2-amine] |
